Target: T1, p300 (Homo sapiens, UniProt Q09472)
T1 construct: host or cells: A549 P300 HiBit cells
Test: P300 degradation, HiBit technology in A549 P300 HiBit cells (2 h)
Type: cell-based
Settings: 2 hrs post treatment; for Dmax: A549, A549 P300 HiBit cells; for DC50: A549 P300 HiBit cells
How it was run: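 Luminescence after lytic HiBiT detection (10 min, room temperature) gave degradation potency and Dmax. Before that, knock-in A549 cells grown overnight in F-12K/10% HI-FBS were exposed to serially diluted compound at 37 °C, 5% CO2 for the assay time stated.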

T1 sequence (Q09472 whole entry): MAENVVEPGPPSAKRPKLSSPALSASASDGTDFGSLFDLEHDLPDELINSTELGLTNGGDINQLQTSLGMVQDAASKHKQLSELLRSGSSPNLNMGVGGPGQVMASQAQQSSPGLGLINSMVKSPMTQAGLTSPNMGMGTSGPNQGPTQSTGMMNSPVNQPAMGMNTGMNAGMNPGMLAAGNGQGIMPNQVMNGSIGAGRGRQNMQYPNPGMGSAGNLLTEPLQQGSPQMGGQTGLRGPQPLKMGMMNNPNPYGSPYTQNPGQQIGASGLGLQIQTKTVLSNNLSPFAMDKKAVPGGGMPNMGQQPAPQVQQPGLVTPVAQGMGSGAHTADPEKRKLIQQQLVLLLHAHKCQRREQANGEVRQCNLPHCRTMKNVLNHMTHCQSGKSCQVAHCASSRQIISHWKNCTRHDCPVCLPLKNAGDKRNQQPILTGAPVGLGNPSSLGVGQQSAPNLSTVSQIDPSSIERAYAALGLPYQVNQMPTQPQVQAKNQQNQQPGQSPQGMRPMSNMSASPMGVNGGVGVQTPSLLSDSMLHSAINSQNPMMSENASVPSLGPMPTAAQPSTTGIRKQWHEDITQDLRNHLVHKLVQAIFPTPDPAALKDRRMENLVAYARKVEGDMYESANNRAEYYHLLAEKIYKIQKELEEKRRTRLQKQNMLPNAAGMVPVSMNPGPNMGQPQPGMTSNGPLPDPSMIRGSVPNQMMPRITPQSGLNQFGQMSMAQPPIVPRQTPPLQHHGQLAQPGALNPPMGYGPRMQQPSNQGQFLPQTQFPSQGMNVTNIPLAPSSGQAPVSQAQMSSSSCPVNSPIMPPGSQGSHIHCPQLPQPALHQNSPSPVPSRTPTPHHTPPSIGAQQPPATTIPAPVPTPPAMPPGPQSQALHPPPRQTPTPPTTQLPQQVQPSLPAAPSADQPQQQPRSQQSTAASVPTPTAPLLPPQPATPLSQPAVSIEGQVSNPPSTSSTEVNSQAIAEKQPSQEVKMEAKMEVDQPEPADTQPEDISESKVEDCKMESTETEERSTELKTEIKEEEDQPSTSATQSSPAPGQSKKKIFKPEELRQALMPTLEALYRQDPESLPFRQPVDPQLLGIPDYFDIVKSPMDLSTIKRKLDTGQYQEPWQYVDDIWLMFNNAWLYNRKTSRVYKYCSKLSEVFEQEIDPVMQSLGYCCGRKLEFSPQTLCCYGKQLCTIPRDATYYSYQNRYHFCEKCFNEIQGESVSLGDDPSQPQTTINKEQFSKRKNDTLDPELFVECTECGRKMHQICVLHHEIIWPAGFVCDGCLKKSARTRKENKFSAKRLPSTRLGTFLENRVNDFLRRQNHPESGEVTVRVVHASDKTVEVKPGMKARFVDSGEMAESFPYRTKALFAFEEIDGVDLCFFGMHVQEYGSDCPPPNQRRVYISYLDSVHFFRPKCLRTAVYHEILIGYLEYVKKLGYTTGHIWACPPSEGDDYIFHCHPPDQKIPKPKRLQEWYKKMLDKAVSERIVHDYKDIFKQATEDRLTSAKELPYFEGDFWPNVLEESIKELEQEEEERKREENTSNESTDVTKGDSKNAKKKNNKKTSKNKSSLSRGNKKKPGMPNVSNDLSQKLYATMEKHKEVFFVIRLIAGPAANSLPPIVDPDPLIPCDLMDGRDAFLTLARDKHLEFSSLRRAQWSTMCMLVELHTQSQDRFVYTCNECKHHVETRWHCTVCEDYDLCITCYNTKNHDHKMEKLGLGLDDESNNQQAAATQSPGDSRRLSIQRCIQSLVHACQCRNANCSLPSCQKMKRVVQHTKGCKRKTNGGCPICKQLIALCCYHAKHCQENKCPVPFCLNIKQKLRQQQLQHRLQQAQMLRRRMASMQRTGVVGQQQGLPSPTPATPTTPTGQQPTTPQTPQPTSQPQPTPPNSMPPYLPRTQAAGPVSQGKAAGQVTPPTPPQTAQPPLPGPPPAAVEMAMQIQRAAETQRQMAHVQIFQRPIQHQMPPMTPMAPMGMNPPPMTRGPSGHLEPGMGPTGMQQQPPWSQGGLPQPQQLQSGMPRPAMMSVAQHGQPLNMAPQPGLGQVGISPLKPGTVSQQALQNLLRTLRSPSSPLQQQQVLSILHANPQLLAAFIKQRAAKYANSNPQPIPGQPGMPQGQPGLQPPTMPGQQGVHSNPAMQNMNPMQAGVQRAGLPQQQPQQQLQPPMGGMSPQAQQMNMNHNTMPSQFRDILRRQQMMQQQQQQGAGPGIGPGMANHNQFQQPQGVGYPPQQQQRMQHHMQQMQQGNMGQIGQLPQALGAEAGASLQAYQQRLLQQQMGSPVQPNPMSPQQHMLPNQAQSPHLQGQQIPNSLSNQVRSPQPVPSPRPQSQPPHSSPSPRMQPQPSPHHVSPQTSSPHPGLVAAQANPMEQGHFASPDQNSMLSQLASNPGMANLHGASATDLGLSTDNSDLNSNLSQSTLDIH

Compound	Dmax [%]	DC50 [nM]
Cc1cc(-c2cnc(N(C)c3cc(C4CCOCC4)c4c(c3)n(C)c(=O)n4C)cn2)cnc1C(=O)NCC#Cc1cc2c(C3CCC(=O)NC3=O)nccc2o1 (stereo not shown) [Example A176, 5-(5-((1,3-dimethyl-2-oxo-7-(tetrahydro-2H-pyran-4-yl)-2,3-dihydro-1H-benzo[d]imidazol-5-yl)(methyl)amino)pyrazin-2-yl)-N-(3-(4-(2,6-dioxopiperidin-3-yl)furo[3,2-c]pyridin-2-yl)prop-2-yn-1-yl)-3-methylpicolinamide]	> 80	10 to 99
Cn1c(=O)n(C)c2cc(-c3cccc4cc(-c5ccc(C(=O)NCC#Cc6cc7c(C8CCC(=O)NC8=O)cccc7o6)nc5)ncc34)ncc21 (stereo not shown) [Example A179, 5-(8-(1,3-dimethyl-2-oxo-2,3-dihydro-1H-imidazo[4,5-c]pyridin-6-yl)isoquinolin-3-yl)-N-(3-(4-(2,6-dioxopiperidin-3-yl)benzofuran-2-yl)prop-2-yn-1-yl)picolinamide]	60 to 79	1 to 9.9
Cc1cc(-c2cccc3cc(-c4ccc(C(=O)NCC#Cc5cc6c(C7CCC(=O)NC7=O)cccc6o5)nc4)ncc23)cc2c1n(C)c(=O)n2C (stereo not shown) [Example A183, N-(3-(4-(2,6-dioxo-piperidin-3-yl)benzofuran-2-yl)prop-2-yn-1-yl)-5-(8-(1,3,7-trimethyl-2-oxo-2,3-dihydro-1H-benzo[d]imidazol-5-yl)isoquinolin-3-yl)picolinamide]	> 80	< 1
CC(C)c1cc(-c2cccc3cc(-c4ccc(C(=O)NCC#Cc5ccc6c(c5)N(C5CCC(=O)NC5=O)CC6)nc4)ncc23)cc2c1n(C)c(=O)n2C (stereo not shown) [Example A184, N-(3-(1-(2,6-dioxo-piperidin-3-yl)indolin-6-yl)prop-2-yn-1-yl)-5-(8-(7-isopropyl-1,3-dimethyl-2-oxo-2,3-dihydro-1H-benzo[d]imidazol-5-yl)isoquinolin-3-yl)picolinamide]	> 80	10 to 99
CC(C)c1cc(-c2cccc3cc(-c4ccc(C(=O)NCC#Cc5nc6c(C7CCC(=O)NC7=O)cccc6n5C)nc4)ncc23)cc2c1n(C)c(=O)n2C (stereo not shown) [Example A186, N-(3-(4-(2,6-dioxo-piperidin-3-yl)-1-methyl-1H-benzo[d]imidazol-2-yl)prop-2-yn-1-yl)-5-(8-(7-iso-propyl-1,3-dimethyl-2-oxo-2,3-dihydro-1H-benzo[d]imidazol-5-yl)isoquinolin-3-yl)picolinamide]	< 20	> 1000
Cc1nc(-c2ncc(N(C)c3cc(C4CCOCC4)c4c(c3)n(C)c(=O)n4C)cn2)cnc1C(=O)NCC#Cc1cc2c(C3CCC(=O)NC3=O)cccc2o1 (stereo not shown) [Example A187, 5-(5-((1,3-dimethyl-2-oxo-7-(tetrahydro-2H-pyran-4-yl)-2,3-dihydro-1H-benzo[d]imidazol-5-yl)(methyl)amino)pyrimidin-2-yl)-N-(3-(4-(2,6-dioxopiperidin-3-yl)benzofuran-2-yl)prop-2-yn-1-yl)-3-methylpyrazine-2-carboxamide]	> 80	1 to 9.9
Cc1cc(N2CCCc3nc(-c4ccc(C(=O)NCC#Cc5cc6c(C7CCC(=O)NC7=O)cccc6o5)nc4)ncc32)cc2c1n(C)c(=O)n2C (stereo not shown) [Example A188, N-(3-(4-(2,6-dioxo-piperidin-3-yl)benzofuran-2-yl)prop-2-yn-1-yl)-5-(5-(1,3,7-trimethyl-2-oxo-2,3-dihydro-1H-benzo[d]imidazol-5-yl)-5,6,7,8-tetrahydropyrido[3,2-d]pyrimidin-2-yl)picolinamide]	> 80	< 1
Cn1c(=O)n(C)c2cc(N3CCOc4nc(-c5ccc(C(=O)NCC#Cc6ccc7nnn(C8CCC(=O)NC8=O)c7c6)nc5)ncc43)ccc21 (stereo not shown) [Example A190, 5-(5-(1,3-dimethyl-2-oxo-2,3-dihydro-1H-benzo[d]imidazol-5-yl)-6,7-dihydro-5H-pyrimido[4,5-b][1,4]oxazin-2-yl)-N-(3-(1-(2,6-dioxopiperidin-3-yl)-1H-benzo[d] [1,2,3]triazol-6-yl)prop-2-yn-1-yl)picolinamide]	60 to 79	1 to 9.9
Cc1cc(-c2ncc(N(C)c3ccc4c(c3)n(C)c(=O)n4C)cn2)cnc1C(=O)NCC#Cc1cc2c(C3CCC(=O)NC3=O)nccc2o1 (stereo not shown) [Example A192, 5-(5-((1,3-dimethyl-2-oxo-2,3-dihydro-1H-benzo[d]imidazol-5-yl)(methyl)amino)pyrimidin-2-yl)-N-(3-(4-(2,6-dioxopiperidin-3-yl)furo[3,2-c]pyridin-2-yl)prop-2-yn-1-yl)-3-methylpicolinamide]	> 80	1 to 9.9
Cc1cc(-c2cnc(Nc3cc(C4CCOCC4)c4c(c3)n(C)c(=O)n4C)cn2)cnc1C(=O)NCC#Cc1cc2c(C3CCC(=O)NC3=O)cccc2o1 (stereo not shown) [Example A193]	< 20	> 1000
CC(C)c1cc(-c2cccc3cc(-c4ccc(C(=O)NCC#Cc5cnc6occ(C7CCC(=O)NC7=O)c6c5)nc4)ncc23)cc2c1n(C)c(=O)n2C (stereo not shown) [Example A196, N-(3-(3-(2,6-dioxo-piperidin-3-yl)furo[2,3-b]pyridin-5-yl)prop-2-yn-1-yl)-5-(8-(7-isopropyl-1,3-dimethyl-2-oxo-2,3-dihydro-1H-benzo[d]imidazol-5-yl)isoquinolin-3-yl)picolinamide]	> 80	1 to 9.9
Cc1cc(-c2cc(N(C)C)c(N(C)c3cc(C4CCOCC4)c4c(c3)n(C)c(=O)n4C)cn2)cnc1C(=O)NCC#Cc1cc2c(C3CCC(=O)NC3=O)cccc2o1 (stereo not shown) [Example A198, 5-((1,3-dimethyl-2-oxo-7-(tetrahydro-2H-pyran-4-yl)-2,3-dihydro-1H-benzo[d]imidazol-5-yl)(methyl)amino)-4-(dimethylamino)-N-(3-(4-(2,6-dioxopiperidin-3-yl)benzofuran-2-yl)prop-2-yn-1-yl)-5′-methyl-[2,3′-bipyridine]-6′-carboxamide]	< 20	> 1000
Cc1nc(-c2cnc(N(C)c3cc(C4CCOCC4)c4c(c3)n(C)c(=O)n4C)cn2)cnc1C(=O)NCC#Cc1cc2c(C3CCC(=O)NC3=O)nccc2o1 (stereo not shown) [Example A200, 5′-((1,3-dimethyl-2-oxo-7-(tetrahydro-2H-pyran-4-yl)-2,3-dihydro-1H-benzo [d]imidazol-5-yl) (methyl)amino)-N-(3-(4-(2,6-dioxo-piperidin-3-yl)furo[3,2-c]pyridin-2-yl)prop-2-yn-1-yl)-6-methyl-[2,2′-bipyrazine]-5-carboxamide]	> 80	1 to 9.9
Cc1cc(-c2ncc(N(C)c3cc(C4CCOCC4)c4c(c3)n(C)c(=O)n4C)cn2)cnc1C(=O)NCC#Cc1ccc2occ(C34CC(C3)C(=O)NC4=O)c2c1 [Example A201, 5-(5-((1,3-dimethyl-2-oxo-7-(tetrahydro-2H-pyran-4-yl)-2,3-dihydro-1H-benzo[d]imidazol-5-yl)(methyl)amino)pyrimidin-2-yl)-N-(3-(3-(2,4-dioxo-3-azabicyclo[3.1.1]heptan-1-yl)benzofuran-5-yl)prop-2-yn-1-yl)-3-methylpicolinamide]	> 80	1 to 9.9
Cn1c(=O)n(C)c2c(N3CCC3)nc(-c3cccc4cc(-c5ccc(C(=O)NCC#Cc6cc7c(C8CCC(=O)NC8=O)cccc7o6)nc5)ncc34)cc21 (stereo not shown) [Example A205, 5-(8-(4-(azetidin-1-yl)-1,3-dimethyl-2-oxo-2,3-dihydro-1H-imidazo[4,5-c]pyridin-6-yl)iso-quinolin-3-yl)-N-(3-(4-(2,6-dioxopiperidin-3-yl)benzofuran-2-yl)prop-2-yn-1-yl)picolinamide]	> 80	1 to 9.9
Cn1c(=O)n(C)c2c(N3CCOCC3)nc(-c3cccc4cc(-c5ccc(C(=O)NCC#Cc6cc7c(C8CCC(=O)NC8=O)nccc7o6)nc5)ncc34)cc21 (stereo not shown) [Example A206, 5-(8-(1,3-dimethyl-4-morpholino-2-oxo-2,3-dihydro-1H-imidazo[4,5-c]pyridin-6-yl)isoquinolin-3-yl)-N-(3-(4-(2,6-dioxopiperidin-3-yl)furo[3,2-c]pyridin-2-yl)prop-2-yn-1-yl)picolinamide]	> 80	< 1
Cc1cc(N2CCN(C)c3cc(-c4ccc(C(=O)NCC#Cc5cc6c(C7CCC(=O)NC7=O)nccc6o5)nc4)ncc32)cc2c1n(C)c(=O)n2C (stereo not shown) [Example A209, N-(3-(4-(2,6-dioxo-piperidin-3-yl)furo [3,2-c]pyridin-2-yl)prop-2-yn-1-yl)-5-(1-methyl-4-(1,3,7-trimethyl-2-oxo-2,3-dihydro-1H-benzo[d]imidazol-5-yl)-1,2,3,4-tetrahydropyrido[3,4-b]pyrazin-7-yl)picolinamide]	> 80	< 1
CC(C)c1cc(-c2cccc3cc(-c4ccc(C(=O)NCC#Cc5ccc6ncnc(C7CCC(=O)NC7=O)c6c5)nc4)ncc23)cc2c1n(C)c(=O)n2C (stereo not shown) [Example A214, N-(3-(4-(2,6-dioxo-piperidin-3-yl)quinazolin-6-yl)prop-2-yn-1-yl)-5-(8-(7-isopropyl-1,3-dimethyl-2-oxo-2,3-dihydro-1H-benzo [d]imidazol-5-yl)isoquinolin-3-yl)picolinamide]	60 to 79	10 to 99
Cn1c(=O)n(C)c2cc(N3CCCc4nc(-c5ccc(C(=O)NCC#Cc6ccc7occ(C89CC(C8)C(=O)NC9=O)c7c6)nc5)ncc43)ccc21 [Example A215, 5-(5-(1,3-dimethyl-2-oxo-2,3-dihydro-1H-benzo[d]imidazol-5-yl)-5,6,7,8-tetrahydropyrido[3,2-d]pyrimidin-2-yl)-N-(3-(3-(2,4-dioxo-3-azabicyclo[3.1.1]heptan-1-yl)benzofuran-5-yl)prop-2-yn-1-yl)picolinamide]	60 to 79	10 to 99
Cn1c(=O)n(C)c2cc(N3CCCc4cc(-c5ccc(C(=O)NCC#Cc6cc7c(C8CCC(=O)NC8=O)cccc7o6)nc5)nnc43)ccc21 (stereo not shown) [Example A217, 5-(8-(1,3-dimethyl-2-oxo-2,3-dihydro-1H-benzo[d]imidazol-5-yl)-5,6,7,8-tetrahydropyrido[2,3-c]pyridazin-3-yl)-N-(3-(4-(2,6-dioxo-piperidin-3-yl)benzofuran-2-yl)prop-2-yn-1-yl)picolinamide]	> 80	1 to 9.9

— patent US20250114345A1, “COMPOUNDS AND COMPOSITIONS AS CBP/P300 DEGRADERS AND USES THEREOF” (Oncopia Therapeutics, Inc. d/b/a/ SK Life Science Labs, priority 2023, published 2025)
